Reference: US20240173422A1, “BICYCLIC PEPTIDE LIGAND DRUG CONJUGATES” (BICYCLETX LIMITED, priority 2019, published 2024)
Numbered stars: 1 amine (or outer) side, 2 acyl side, 3 side chain; on linkers, the order of the positions; unused ones are H or OH. Bridge positions count the residues as written; N and C are the ends. Square brackets hold non-standard residues; d marks the D form. I, II: the chains in the order shown. * marks the point of attachment. X2 = O=C(CCOCCOCCOCCOCCOCCOCCOCCOCCOCCOCCC(=O)[*:2])[*:1]; TATA = O=C(CC[*:1])N1CN(C(=O)CC[*:2])CN(C(=O)CC[*:3])C1; Dolaproine = CO[C@@H]([C@@H]1CCCN1)[C@@H](C)C(=O)O; Dil = CC[C@H](C)[C@H](NC)[C@@H](CC(=O)O)OC; 1Nal = N[C@@H](Cc1cccc2ccccc12)C(=O)O; X3 = O=C(CCCC(=O)[*:2])NCCC(=O)[*:1]; PABC = O=C(OCc1ccc(N[*:1])cc1)[*:2]; X1 = C[C@@H](N*)[C@@H](O)c1ccccc1; Hyp = O=C(O)[C@@H]1C[C@@H](O)CN1; Cit = NC(=O)NCCC[C@H](N)C(=O)O; NMeV = CN[C@H](C(=O)O)C(C)C; Sar = CNCC(=O)O

Legend:
[1] = target: Human Nectin-4 (residues Gly32-Ser349; NCBI RefSeq: NP_112178.2) with C-terminal FLAG tag, biotinylated (human) (UniProt Q96NY8); test: SPR binding assay, against BCY8126 as reference
[2] = target: Human Nectin-4 (residues Gly32-Ser349; NCBI RefSeq: NP_112178.2) with C-terminal FLAG tag, biotinylated (human) (UniProt Q96NY8); test: SPR (Biacore 3000), biotinylated Nectin-4 captured on streptavidin CM5 chip, peptide as analyte
[3] = system: NCI-H292 xenograft; test: In vivo efficacy study in NCI-H292 xenograft in Balb/c nude mice; design: species or system Balb/c nude mice (Mus Musculus); conditions: 3 mpk, iv
Description: In Vivo Efficacy Study of BCY8244 in Treatment of NCI-H292 Xenograft in Balb/c Nude Mice
The objective of the research is to evaluate the in vivo anti-tumor efficacy of BCY8244 in treatment of NCI-H292 xenograft in Balb/c nude mice.
• Species: Mus Musculus • Strain: Balb/c nude • Age: 6-8 weeks • Sex: female • Body weight: 18-22 g • Number of animals: 43 mice plus spare • Animal supplier: Shanghai Lingchang Biotechnology Experimental Animal Co. Ltd
The NCI-H292 tumor cells were maintained in vitro as a monolayer culture in RPMI-1640 medium supplemented with 10% heat inactivated fetal bovine serum at 37° C. in an atmosphere of 5% CO2 in air. The tumor cells were routinely subcultured twice weekly by trypsin-EDTA treatment. The cells growing in an exponential growth phase were harvested and counted for tumor inoculation.
Each mouse was inoculated subcutaneously at the right flank with NCI-H292 tumor cells (10×10^6) in 0.2 ml of PBS for tumor development. 43 animals were randomized when the average tumor volume reached 168 mm^3. The test article administration and the animal numbers in each group were shown in the experimental design table.
The major endpoint was to see if the tumor growth could be delayed or mice could be cured. Tumor volume was measured three times weekly in two dimensions using a caliper, and the volume was expressed in mm^3 using the formula: V=0.5 a×b^2 where a and b are the long and short diameters of the tumor, respectively. The tumor size was then used for calculations of T/C value. The T/C value (in percent) is an indication of antitumor effectiveness; T and C are the mean volumes of the treated and control groups, respectively, on a given day. TGI was calculated for each group using the formula: TGI (%)=[1−(Ti−T0)/(Vi−V0)]×100; Ti is the average tumor volume of a treatment group on a given day, T0 is the average tumor volume of the treatment group on the day of treatment start, Vi is the average tumor volume of the vehicle control group on the same day with Ti and V0 is the average tumor volume of the vehicle group on the day of treatment start.
Summary statistics, including mean and the standard error of the mean (SEM), were provided for the tumor volume of each group at each time point.
Statistical analysis of difference in tumor volume among the groups was conducted on the data obtained at the best therapeutic time point after the final dose.
A t-test was performed to compare tumor volume among groups, […]. All data were analyzed using GraphPad Prism 5.0. P<0.05 was considered to be statistically significant.
Tumor growth inhibition rate for test articles in the NCI-H292 xenograft model was calculated based on tumor volume measurements at day 14 after the start of treatment.

[4] = Body weight monitoring in the NCI-H292 xenograft study; format: in vivo, Balb/c nude mice (Mus Musculus); conditions: 3 mpk, iv, qw
Description: All the procedures related to animal handling, care and the treatment in the study were performed according to the guidelines approved by the Institutional Animal Care and Use Committee (IACUC) of WuXi AppTec, following the guidance of the Association for Assessment and Accreditation of Laboratory Animal Care (AAALAC). At the time of routine monitoring, the animals were checked for any effects of tumor growth and treatments on normal behavior such as mobility, food and water consumption (by looking only), body weight gain/loss, eye/hair matting and any other abnormal effect as stated in the protocol. Death and observed clinical signs were recorded on the basis of the numbers of animals within each subset.

[5] = target: T1, human Nectin-4 (Homo sapiens, UniProt Q96NY8); test: Nectin-4 Biacore SPR binding assay
T1 sequence (Q96NY8 32-349): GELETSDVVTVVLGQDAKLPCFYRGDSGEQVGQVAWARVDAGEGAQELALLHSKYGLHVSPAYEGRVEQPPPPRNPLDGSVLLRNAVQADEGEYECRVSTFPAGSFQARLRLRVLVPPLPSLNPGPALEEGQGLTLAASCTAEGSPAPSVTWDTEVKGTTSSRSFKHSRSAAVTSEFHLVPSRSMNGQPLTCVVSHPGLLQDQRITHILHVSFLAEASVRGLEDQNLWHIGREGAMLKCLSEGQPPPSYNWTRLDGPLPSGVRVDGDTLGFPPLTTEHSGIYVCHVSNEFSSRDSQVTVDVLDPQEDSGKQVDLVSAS

## BCY8244 (Nectin-4 homo-tandem), BDC of formula (A) (peptide)
[1]
  fold greater binding activity than BCY8126: 3.5 fold
[2]
  koff: 0.000319 s⁻¹

## I: [Sar][Sar][Sar][Sar][Sar][Sar][Sar][Sar][Sar][Sar]CP[1Nal][dD]CMKDWSTP[Hyp]WC-NH2 / II: [Sar][Sar][Sar][Sar][Sar][Sar][Sar][Sar][Sar][Sar]CP[1Nal][dD]CMKDWSTP[Hyp]WC-NH2 / III: V[Cit][PABC][NMeV]V[Dil][Dolaproine]-X1 / IV: V[Cit][PABC][NMeV]V[Dil][Dolaproine]-X1 (linker I:11-I:15-I:25, II:11-II:15-II:25 via TATA; linker I:17-II:17 via X2; linker I:N-III:N, II:N-IV:N via X3; C-terminus assumed) [BCY8244]
[3]; NCI-H292 xenograft, qw, 3 mg/kg
  tumor inhibitory effect: excellent levels of tumor inhibitory effect and regressed the tumors potently
[3]; day 0 after the start of treatment, qw
  Tumor volume (mean ± SEM): 168 ± 20 mm^3
[3]; day 2 after the start of treatment, qw
  Tumor volume (mean ± SEM): 187 ± 20 mm^3
[3]; day 4 after the start of treatment, qw
  Tumor volume (mean ± SEM): 180 ± 48 mm^3
[3]; day 7 after the start of treatment, qw
  Tumor volume (mean ± SEM): 155 ± 33 mm^3
[3]; day 9 after the start of treatment, qw
  Tumor volume (mean ± SEM): 141 ± 29 mm^3
[3]; day 11 after the start of treatment, qw
  Tumor volume (mean ± SEM): 96 ± 23 mm^3
[3]; day 14, qw
  TGI: 109.0%
[3]; day 14, qw (Table 5)
  Tumor volume (mean ± SEM): 108 ± 15 mm^3
[3]; day 14, qw, treated/control mean tumor volume
  T/C: 12.8%
[3]; day 14 after the start of treatment, qw (Table 4)
  Tumor volume (mean ± SEM): 108 ± 15 mm^3
[4]
  body weight: maintained the bodyweight well
[5]
  Kd: 0.425 nM
  binding in the SPR binding assay: good levels of binding
[5]; Biacore SPR, biotinylated human Nectin-4, 25° C.
  kd: 0.000319 s⁻¹
[5]; homo-tandem versus monomer
  fold greater binding activity in the SPR binding assay than monomeric BCY8126: 3.5 fold
[5]; read-out: ka
  kon: 750000 M⁻¹ s⁻¹

## BCY8126 (Nectin-4 monomer) (peptide)
[2]
  Kd: 1.46 nM
  koff: 0.000969 s⁻¹
  kon: 662000 M⁻¹ s⁻¹
